These results are taken from patent publication US10723705B2, “Heterocyclic compounds and uses thereof” (Incyte Corporation, priority 2015, dated 2020).

The structures appear in SMILES notation. Read-outs that look alike come from different tables or passages of the source.

In the assay the target is Human recombinant Histone Deacetylase 8 (HDAC8) (Homo sapiens (Human), UniProt Q9BY41). The assay can be described thus: HDAC8 Enzymatic Assay (HDAC-Glo I/II luminescence). Type of assay: biochemical. In outline:
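Human recombinant HDAC8 (1.5 nM final) preincubated with compound for 30 min, then reacted with 50 μM Boc-GAK(Ac)-aminoluciferin plus trypsin-containing developer for 15 min at room temperature, pH 8.0, 0.5% DMSO. Luminescence read-out; IC50 from percent control activity versus log concentration.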

The mark [1] stands for this setting: class symbols, Table 14, read-out: HDAC8 IC50.

Human recombinant Histone Deacetylase 8 (HDAC8), sequence (Q9BY41 whole entry): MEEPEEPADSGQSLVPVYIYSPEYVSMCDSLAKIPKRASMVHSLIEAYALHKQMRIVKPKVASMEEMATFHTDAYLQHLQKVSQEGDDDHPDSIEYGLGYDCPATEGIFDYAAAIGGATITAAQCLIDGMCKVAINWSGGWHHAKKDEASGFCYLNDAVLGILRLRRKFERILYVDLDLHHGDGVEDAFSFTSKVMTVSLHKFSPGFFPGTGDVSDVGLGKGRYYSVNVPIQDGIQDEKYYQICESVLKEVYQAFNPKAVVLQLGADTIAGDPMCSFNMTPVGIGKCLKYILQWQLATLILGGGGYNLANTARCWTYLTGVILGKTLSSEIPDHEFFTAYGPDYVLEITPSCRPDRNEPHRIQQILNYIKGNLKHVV

In general, IC50 refers to the concentration at which inhibition is half-maximal. In the case of `Cn1cc(-c2cccc3cn(C(Cc4ccccc4)C(=O)NO)nc23)cn1` (centres unmarked) [Compound I-0109, N-hydroxy-2-(7-(1-methyl-1H-pyrazol-4-yl)-2H-indazol-2-yl)-3-phenylpropanamide], the IC50 under setting [1] lay in the range of 200 to 500 nM.
Same read-out and setting: to `CN(C)C(=O)c1ccc(-c2cccc3cn(C(Cc4ccccc4)C(=O)NO)nc23)cc1` (centres unmarked) [Compound I-0110, 4-(2-(1-(hydroxyamino)-1-oxo-3-phenylpropan-2-yl)-2H-indazol-7-yl)-N,N-dimethylbenzamide] belongs not above 50 nM; to `Cc1nn(C)c(C)c1-c1cccc2cn(C(Cc3ccccc3)C(=O)NO)nc12` (centres unmarked) [Compound I-0111, N-hydroxy-3-phenyl-2-(7-(1,3,5-trimethyl-1H-pyrazol-4-yl)-2H-indazol-2-yl)propanamide], more than 500 nM.
Still for that read-out and setting: to `O=C(NO)C(Cc1ccccc1)c1cnc2cc(-c3cncnc3)ccn12` (centres unmarked) [Compound I-0112, N-hydroxy-3-phenyl-2-(7-(pyrimidin-5-yl)imidazo[1,2-a]pyridin-3-yl)propanamide] belongs 50 to 200 nM; to `O=C(NO)C(Cc1ccccc1)c1cnc2cc(-c3ccncc3)ccn12` (centres unmarked) [Compound I-0113, N-hydroxy-3-phenyl-2-(7-(pyridin-4-yl)imidazo[1,2-a]pyridin-3-yl)propanamide], more than 500 nM.
As to `O=C(NO)C(Cc1ccccc1)c1cnc2cc(-c3cccnc3)ccn12` (centres unmarked) [Compound I-0114, N-hydroxy-3-phenyl-2-(7-(pyridin-3-yl)imidazo[1,2-a]pyridin-3-yl)propanamide], the IC50 under setting [1] was in the range of 200 to 500 nM.
On to `Cn1nccc1-c1ccn2c(C(Cc3ccccc3)C(=O)NO)cnc2c1` (centres unmarked) [Compound I-0115, N-hydroxy-2-(7-(1-methyl-1H-pyrazol-5-yl)imidazo[1,2-a]pyridin-3-yl)-3-phenylpropanamide], for which the half-inhibitory concentration (IC50) under setting [1] lay in the range of 200 to 500 nM.
Regarding `O=C(NO)C(Cc1ccccc1)n1ncc2cc(-c3ccccc3)cnc21` (centres unmarked) [Compound I-0116, N-hydroxy-3-phenyl-2-(5-phenyl-1H-pyrazolo[3,4-b]pyridin-1-yl)propanamide], under setting [1], the 50% inhibitory concentration (IC50) is more than 500 nM.
With `N#Cc1ccc(-c2cnc3c(cnn3C(Cc3ccccc3)C(=O)NO)c2)cc1` (centres unmarked) [Compound I-0117, 2-(5-(4-cyanophenyl)-1H-pyrazolo[3,4-b]pyridin-1-yl)-N-hydroxy-3-phenylpropanamide], under setting [1], the IC50 is more than 500 nM.
Consider `NC(=O)c1ccc(-c2cnc3c(cnn3C(Cc3ccccc3)C(=O)NO)c2)cc1` (centres unmarked) [Compound I-0118, 4-(1-(1-(hydroxyamino)-1-oxo-3-phenylpropan-2-yl)-1H-pyrazolo[3,4-b]pyridin-5-yl)benzamide], for which, under setting [1], the IC50 lay in the range of 200 to 500 nM.
`Cn1nccc1-c1cnc2c(cnn2C(Cc2ccccc2)C(=O)NO)c1` (centres unmarked) [Compound I-0119, N-hydroxy-2-(5-(1-methyl-1H-pyrazol-5-yl)-1H-pyrazolo[3,4-b]pyridin-1-yl)-3-phenylpropanamide]: the half-inhibitory concentration (IC50) under setting [1] is 200 to 500 nM.
The same measure, in the same setting: the result for `Cn1cc(-c2cnc3c(cnn3C(Cc3ccccc3)C(=O)NO)c2)cn1` (centres unmarked) [Compound I-0120, N-hydroxy-2-(5-(1-methyl-1H-pyrazol-4-yl)-1H-pyrazolo[3,4-b]pyridin-1-yl)-3-phenylpropanamide] reads 200 to 500 nM.
With `O=C(NO)C(Cc1ccccc1)n1ncc2cc(-c3cncnc3)cnc21` (centres unmarked) [Compound I-0121, N-hydroxy-3-phenyl-2-(5-(pyrimidin-5-yl)-1H-pyrazolo[3,4-b]pyridin-1-yl)propanamide], the concentration for half-maximal inhibition (IC50) under setting [1] was 200 to 500 nM.
Same read-out and setting: the result for `O=C(NO)C(Cc1ccccc1)n1ncc2cc(Br)cnc21` (centres unmarked) [Compound I-0122, 2-(5-bromo-1H-pyrazolo[3,4-b]pyridin-1-yl)-N-hydroxy-3-phenylpropanamide] reads 200 to 500 nM; that for `O=C(NO)C(Cc1ccccc1)n1cc2cc(Br)cnc2n1` (centres unmarked) [Compound I-0123, 2-(5-bromo-2H-pyrazolo[3,4-b]pyridin-2-yl)-N-hydroxy-3-phenylpropanamide], 200 to 500 nM.
Same read-out and setting: the result for `O=C(NO)C(Cc1ccccc1)n1nc(I)c2ccnc(Cl)c21` (centres unmarked) [Compound I-0124, 2-(7-chloro-3-iodo-1H-pyrazolo[3,4-c]pyridin-1-yl)-N-hydroxy-3-phenylpropanamide] reads 50 to 200 nM.
On the same count and under the same terms, to `O=C(NO)C(Cc1ccccc1)n1nc2c(Cl)nccc2c1I` (centres unmarked) [Compound I-0125, 2-(7-chloro-3-iodo-2H-pyrazolo[3,4-c]pyridin-2-yl)-N-hydroxy-3-phenylpropanamide] belongs 50 to 200 nM.
On to `O=C(NO)C(Cc1ccccc1)n1nc(C#CC2CC2)c2ccnc(Cl)c21` (centres unmarked) [Compound I-0126, 2-[7-Chloro-3-(cyclopropylethynyl)-1H-pyrazolo[3,4-c]pyridin-1-yl]-N-hydroxy-3-phenylpropanamide], for which the IC50 runs as follows: (HDAC8, read-out: IC50) 101 nM; under setting [1], 50 to 200 nM.
The matching figures for `O=C(NO)C(Cc1ccccc1)n1nc2c(Cl)nccc2c1C#CC1CC1` (centres unmarked) [Compound I-0127, 2-[7-Chloro-3-(cyclopropylethynyl)-2H-pyrazolo[3,4-c]pyridin-2-yl]-N-hydroxy-3-phenylpropanamide]: 5.7 nM and not above 50 nM.
Regarding `Cn1nccc1-c1nccc2c(C#CC3CC3)n(C(Cc3ccccc3)C(=O)NO)nc12` (centres unmarked) [Compound I-0128, 2-[3-(Cyclopropylethynyl)-7-(1-methyl-1H-pyrazol-5-yl)-2H-pyrazolo[3,4-c]pyridin-2-yl]-N-hydroxy-3-phenylpropanamide], the half-inhibitory concentration (IC50) by setting is: (HDAC8, read-out: IC50) 4.3 nM; under setting [1], not above 50 nM.
On to `O=C(NO)C(Cc1ccccc1)n1cc2ccnc(Cl)c2n1` (centres unmarked) [Compound I-0129, 2-(7-chloro-2H-pyrazolo[3,4-c]pyridin-2-yl)-N-hydroxy-3-phenylpropanamide], for which the half-maximal inhibitory concentration (IC50) under setting [1] fell in the range of 200 to 500 nM.
The same measure, in the same setting: to `N#Cc1cccc(-c2cnc3c(cnn3C(Cc3ccccc3)C(=O)NO)c2)c1` (centres unmarked) [Compound I-0130, 2-(5-(3-cyanophenyl)-1H-pyrazolo[3,4-b]pyridin-1-yl)-N-hydroxy-3-phenylpropanamide] belongs more than 500 nM; to `NC(=O)c1cccc(-c2cnc3c(cnn3C(Cc3ccccc3)C(=O)NO)c2)c1` (centres unmarked) [Compound I-0131, 3-(1-(1-(hydroxyamino)-1-oxo-3-phenylpropan-2-yl)-1H-pyrazolo[3,4-b]pyridin-5-yl)benzamide], 200 to 500 nM; to `O=C(NO)C(Cc1ccccc1)n1ncc2cc(-c3cccnc3)cnc21` (centres unmarked) [Compound I-0132, N-hydroxy-3-phenyl-2-(5-(pyridin-3-yl)-1H-pyrazolo[3,4-b]pyridin-1-yl)propanamide], 200 to 500 nM.
`O=C(NO)C(Cc1ccccc1)n1ncc2cc(-c3ccncc3)cnc21` (centres unmarked) [Compound I-0133, N-hydroxy-3-phenyl-2-(5-(pyridin-4-yl)-1H-pyrazolo[3,4-b]pyridin-1-yl)propanamide]: the half-maximal inhibitory concentration (IC50) under setting [1] is more than 500 nM.
For the compound `O=C(NO)C(Cc1ccccc1)c1cnc2c(Cl)cccn12` (centres unmarked) [Compound I-0134, 2-(8-Chloroimidazo[1,2-a]pyridin-3-yl)-N-hydroxy-3-phenylpropanamide], the IC50 (HDAC8, read-out: IC50) worked out at 258 nM and the 50% inhibitory concentration (IC50) under setting [1] lay within 200 to 500 nM.
With `O=C(NO)C(Cc1ccccc1)n1nc2c(Cl)cccc2c1I` (centres unmarked) [Compound I-0135, 2-(7-chloro-3-iodo-2H-indazol-2-yl)-N-hydroxy-3-phenylpropanamide], the IC50 under setting [1] lay in the range of 200 to 500 nM.
On to `O=C(NO)C(Cc1ccccc1)n1nc2c(Cl)cccc2c1C#CC1CC1` (centres unmarked) [Compound I-0136, 2-(7-chloro-3-(cyclopropylethynyl)-2H-indazol-2-yl)-N-hydroxy-3-phenylpropanamide], for which the IC50 under setting [1] is not above 50 nM.
